Results: US5552155A, “Fusogenic lipsomes and methods for making and using same” (The Liposome Company, Inc., priority 1994, dated 1996)

What was measured:
[1] = Lipid-mixing fusion assay by RET fluorescent probe dilution, EPC/DOPE/Chol liposomes
[2] = as above; settings: for order of fusion traces, uppermost-lowermost / fusion of liposomes / fusion rate (in words): 5 mole % aminolipid, FIG. 9; for order of fusion traces, uppermost-lowermost: EPC/Chol/DOPE (35:20:45); for fusion of liposomes / fusion rate (in words): EPC/DOPE/Chol (35:20:45)
Procedure: (§1) Fusion was monitored by the decrease in resonance energy transfer (RET) resulting from fluorescent probe dilution, as described by Struck et al. (1981). […] The external buffer was 20 mM HEPES (150 mM NaCl, pH 7.5). […] Labeled and unlabeled liposomes were mixed in a 1:3 ratio, and diluted to 0.2 mM total lipid. External buffer was exchanged for 300 mM sucrose, 1 mM citrate, pH 4.0, on Sephadex G-25 columns before diluting preparations to 10 mM lipid. For fusion assays, 20 μl of fluorescently labeled liposomes, and 60 μl unlabeled liposomes, were added to 3.92 ml of 20 mM HEPES, 150 mM NaCl, pH 7.5. After 5 min. of incubation at room temperature, a 3 ml aliquot was added to a cuvette, and the fluorescence was monitored over 5 minutes. Excitation and emission wavelengths were 465 and 535 nm, respectively, and an emission 530 nm cutoff filter was used. To dissipate the gradient and induce fusion, ammonium acetate was added to a final concentration of 100 mM at 30 seconds. The percent change in fluorescence (% F/Fmax) was determined by assigning zero fluorescence (F0) to a trace with no ammonium acetate added and Fmax to a trace measured after adding 100 μl of 25 mM Triton X-100, so that:
(§2) % (F/Fmax)=100×((F-F0)/(Fmax -F0))
To study the effect of aminolipid structure on the fusion of EPC/Chol/DOPE liposomes (35:20:45) liposomes were prepared with 5 mole % of the indicated aminolipid (AL-1-AL-6), an internal pH 4.0, 300 mM sodium citrate buffer, and an external 20 mM HEPES buffer (150 mM NaCl, pH 7.5). Fusion assays were carried out as described above.
(§3) Membrane fusion was monitored by a loss in RET between the fluorescently labeled lipids NBD-PE and Rh-PE. When liposomes containing both of these labels fuse with unlabeled liposomes, the resulting dilution of the fluorescent probes gives increased fluorescence for NBD-PE.

[3] = Aggregation / stability of aminolipid-containing liposomes; type: physicochemical
[4] = Lipid-mixing fusion assay by RET fluorescent probe dilution, EPC/Chol (55:45) liposomes; settings: for ΔF/ΔFmax (fusion): pH gradient dissipated by ammonium acetate
Procedure: as §1, §2
The labeled and unlabeled liposomes were mixed in a 1:3 ratio and diluted to 0.20 mM total lipid. The pH gradient was dissipated by the addition of ammonium acetate to a final concentration of 100 mM at 30 seconds.
as §3

[5] = Lipid asymmetry (transport of aminolipid to the inner monolayer) by TNS fluorescence; type: physicochemical; settings: internal pH 4, external pH 7.5
Procedure: Aliquots of 90 μl were added to 2.9 ml of 20 mM HEPES, 150 mM NaCl, 5 μM TNS, pH 7.5, and fluorescence was monitored over 5 minutes.
However, at higher concentrations, the fluorescence levels off and begins to decrease.
The slow decreases in fluorescence observed in these curves is a result of photobleaching of TNS during the course of the experiments. […] The rapid movement of the AL-1 across the bilayer is advantageous for its use in controlling fusion.

[6] = 2H-NMR phase behavior of AL-1-d4 in MLVs; type: physicochemical; settings: for phase behavior by 2H-NMR (in words): 10 mole % AL-1-d4 in EPC/Chol (55:45)
Procedure: Freeze-thawed MLVs of 10 mole % AL-1-d4 in EPC/Chol (55:45) were prepared as described above in 100 mM ammonium acetate at pH 4.0 and pH 7.5 in deuterium-depleted water. Sample concentrations were approximately 150 mM total lipid. Broad line quadrupole spectra were recorded on a Bruker MSL200 spectrometer at 30.7 MHz, using a spin-echo sequence with a 5.3 μs 90° pulse and a 200 ms repeat delay. Temperature was maintained at 20° C. with a liquid nitrogen flow system. […] FIDs were transformed using 100 Hz line-broadening.
Freeze-thawed MLVs containing 5 mole percent AL-1-d4 in EPC/Chol (55:45) were prepared in 20 mM HEPES, 20 mM ammonium acetate, 150 mM NaCl, pH 4.0 and pH 7.5, using deuterium-depleted water. Sample concentrations were approximately 200 mM total lipid. ^2 H-NMR broadline spectra were recorded at 46.175 MHz, on a home-built 300 MHz spectrometer using a 5 μs 90° pulse, 50 μs interpulse spacing, 30.5 μs ring-down delay, and a 300 ms repetition time. A quadrupole echo sequence with eight-step phase cycling was used to accumulate 200,000 scans. The resulting free induction decay (FID) was transformed with 100 Hz line-broadening. High resolution ^31 P spectra were recorded at 81 MHz on a Bruker MSL200 spectrometer, using a 2.8 μs pulse and 30 s repeat. Temperature was maintained at 23 degrees Celsius with a liquid nitrogen flow system. The FID was accumulated over 1000 scans, and transformed with 50 Hz line broadening.
The use of MLVs in this experiment avoids the rapid tumbling of LUVs on the NMR time scale. […] At pH 7.5, the bilayer signal is no longer present, and a strong isotropic peak appears in the middle of the spectrum.

[7] = TNS fluorescence pH titration: apparent pKa and % charged of aminolipids in liposomal membranes; type: physicochemical; settings: for pKa's and relative charges at pH 7.5 (in words): compared with AL-1; for Apparent pKa: in liposomes, from fit of TNS fluorescence titrations to Henderson-Hasselbach equation; for pKa in the lipid bilayer (text / figure legend): TNS fluorescence titration, 10 mole % AL-1 in EPC/Chol (55:45), no pH gradient (nigericin)
Procedure: Preparations were diluted to 0.25 mM total lipid in 5 mM HEPES, 5 mM ammonium, 2 μM TNS at pHs ranging from 3.0 to 10.0 The pH across the vesicle membranes was rendered equal by adding nigericin to a final concentration of 0.01 μM. The TNS fluorescence at each pH value was determined under the conditions given above.
*The data were derived from TNS fluorescence titrations. Curves for each
aminolipid were fitted to the HendersonHasselbach equation by iteratively
varying pKa and maximum and minimum fluorescence.

[8] = 10 mole % AL-1 in EPC/Chol (55:45)
[9] = Table 1, from TNS fluorescence titrations

**Q.** For `CCCCCCCC/C=C\CCCCCCCC(=O)OCC(CN(C)C)OC(=O)CCCCCCC/C=C\CCCCCCCC` (centres unmarked) [AL-1, 1-N,N-dimethylamino dioleoyl propane], which “fusion rate with increasing DOPE (in words)” value ([1]; 10 mole % AL-1, DOPE replacing EPC up to 35:20:45 EPC/DOPE/Chol, FIG. 6) is on record?
**A.** Increasing fusion rates were evident with increasing DOPE concentrations

**Q.** What about the “ΔF/ΔFmax (fusion)” value ([1]; 10 mole % AL-1, EPC/DOPE/Chol 35:20:45, after 5 minutes) of the same molecule?
**A.** over 5%

**Q.** What about the “ΔF/ΔFmax (fusion)” value ([1]; 10 mole % AL-1, EPC/DOPE/Chol (30:25:45), over 5 minutes after gradient dissipation) of the same molecule?
**A.** ~10%

**Q.** And the “ΔF/ΔFmax (fusion)” value ([2]; 5 mole % AL-1, EPC/DOPE/Chol (35:20:45), first 5 minutes)?
**A.** greater than 10%

**Q.** And the “order of fusion traces, uppermost-lowermost” value (“order … uppermost-lowermost” for short) [2]?
**A.** AL-1, AL-5, AL-4, AL-3, AL-6, AL-2 and blank

**Q.** And the “liposome stability (in words)” value ([3]; 5 mole % AL-1, EPC/DOPE/Chol (35:20:45), pH 4.0 and external pH 7.5)?
**A.** stable liposomes were prepared, and these remained stable when the external pH was increased to 7.5

**Q.** And the “liposome aggregation (in words)” value ([3]; 10 mole % AL-1, EPC/DOPE/Chol 35:20:45, low pH)?
**A.** some aggregation of liposomes was observed at low pH

**Q.** What about the “liposome aggregation (in words)” value ([3]; 10 mole % AL-1, EPC/DOPE/Chol, DOPE above 35:20:45) of the same molecule?
**A.** rapid aggregation

**Q.** And the “liposome aggregation (in words)” value [3, 8]?
**A.** aggregated

**Q.** And the “liposome aggregation (in words)” value ([3]; AL-1 greater than about 20 mole % in EPC/Chol, following extrusion)?
**A.** rapid and complete liposome aggregation

**Q.** And the “ΔF/ΔFmax (fusion)” value ([4]; 10 mole % AL-1, EPC/Chol (55:45))?
**A.** ~3%

**Q.** What about the “ΔF/ΔFmax (fusion)” value ([4]; 20 mole % AL-1, EPC/Chol (55:45)) of the same molecule?
**A.** ~3%

**Q.** What about the “degree of fusion (in words)” value ([4]; AL-1 in EPC/Chol (55:45)) of the same molecule?
**A.** limited degree of fusion

**Q.** What about the “time until TNS fluorescence equal to that of EPC/Chol liposomes (virtually all AL-1 moved to the inner monolayer)” value [5, 8] of the same molecule?
**A.** four

**Q.** And the “transbilayer movement to the inner monolayer (in words)” value ([5]; pH gradient)?
**A.** virtually all of the AL-1 had moved to the inner monolayer

**Q.** And the “phase behavior by 2H-NMR (in words)” value ([6]; pH 7.5)?
**A.** exists in separate fluid domains at pH 7.5

**Q.** With `CCCCCCCC/C=C\CCCCCCCC(=O)OCC(CN(C)C)OC(=O)CCCCCCCCC` (racemic) [AL-5] as the molecule, how does the “order … uppermost-lowermost” value [2] read?
**A.** AL-1, AL-5, AL-4, AL-3, AL-6, AL-2 and blank

**Q.** What about the “fusion of liposomes / fusion rate (in words)” value [2] of the same molecule?
**A.** further increases in the fusion rate, with rates approaching those achieved with AL-1--containing liposomes

**Q.** What about the “% Charged at pH 7.5” value [7, 9] of the same molecule?
**A.** 14%

**Q.** And the “pKa's and relative charges at pH 7.5 (in words)” value [7]?
**A.** approach those for AL-1

**Q.** For `[2H]/C(CCCCCCCC)=C(\[2H])CCCCCCCC(=O)OCC(CN(C)C)OC(=O)CCCCCCC/C([2H])=C(/[2H])CCCCCCCC` (racemic) [AL-1-d4, rac-1-N,N-dimethylamino-2,3-bis(9,10-dideuteriooleoyl)propane], which “2H-NMR quadrupolar splitting of signal believed to arise from aminolipid in HII phase” value ([6]; 5 mole % AL-1-d4, EPC/DOPE/Chol, pH 7.5, FIG. 8A) is on record?
**A.** about 12 kHz

**Q.** What about the “phase behavior by 2H-NMR (in words)” value ([6]; pH 4.0) of the same molecule?
**A.** quadrupolar splittings for the chain-labeled positions of AL-1-d4, with the expected magnitude for lipid in the bilayer

**Q.** For `CCCCCCCCCC(=O)OCC(CN(C)C)OC(=O)CCCCCCCCC` (racemic) [AL-6, ±-1,2-didecanoyl-1-N,N,-dimethyl-aminopropane], which “order … uppermost-lowermost” value [2] is on record?
**A.** AL-1, AL-5, AL-4, AL-3, AL-6, AL-2 and blank

**Q.** What about the “fusion of liposomes / fusion rate (in words)” value [2] of the same molecule?
**A.** only limited mixing

**Q.** What about the “% Charged at pH 7.5” value [7, 9] of the same molecule?
**A.** 17%

**Q.** And the “pKa's and relative charges at pH 7.5 (in words)” value [7]?
**A.** approach those for AL-1

**Q.** What does the source list for `CCCCCCCC/C=C\CCCCCCCC(=O)OCC(CN(C)C)OC(=O)CCC` (racemic) [AL-4]?
**A.** order of fusion traces, uppermost-lowermost [2]: AL-1, AL-5, AL-4, AL-3, AL-6, AL-2 and blank; fusion of liposomes / fusion rate (in words) [2]: further increases in the fusion rate, with rates approaching those achieved with AL-1--containing liposomes; Apparent pKa ([7]; Table 1): 6.66; % Charged at pH 7.5 [7, 9]: 13%; pKa's and relative charges at pH 7.5 (in words) [7]: approach those for AL-1

**Q.** Which results are given for `CCCCCCCC/C=C\CCCCCCCC(=O)OCC(CN(C)C)OC(C)=O` (racemic) [AL-3]?
**A.** order of fusion traces, uppermost-lowermost [2]: AL-1, AL-5, AL-4, AL-3, AL-6, AL-2 and blank; fusion of liposomes / fusion rate (in words) [2]: substantially greater fusion rate; pKa in the lipid bilayer (text / figure legend) [7]: 6.79; % Charged at pH 7.5 [7, 9]: 16%; % Charged at pH 7.5 [7]: 16%

**Q.** What does the source list for `CCCCCCCC/C=C\CCCCCCCC(=O)OCC(O)CN(C)C` (racemic) [AL-2, ±-oleoyl-2-hydroxy-3-N,N-dimethylaminopropane]?
**A.** order of fusion traces, uppermost-lowermost [2]: AL-1, AL-5, AL-4, AL-3, AL-6, AL-2 and blank; fusion of liposomes / fusion rate (in words) [2]: little increase in liposome fusion in comparison with liposomes not containing aminolipid; pKa in the lipid bilayer (text / figure legend) [7]: about 7.57; Apparent pKa ([7]; Table 1): 7.57; % Charged at pH 7.5 [7, 9]: 54%
